Read-outs that look alike come from different tables or passages of the source.

As usually defined, the ED50 is the dose that gives a 50% effect, or the effect in half of the subjects.

For one experiment, the system named is paw edema. Description: adjuvant-edema test (oral, Mycobacterium butyricum paw edema). The class given is in vivo, SPF rats. As to conditions: Rattus norvegicus, read-out: Adjuvant Edema Test ED50. As to the method: Furthermore, the systemic activity was determined with the aid of the adjuvant-edema test as follows:
SPF rats weighing 130-150 g were injected in the right hind paw with 0.1 ml of a 0.5% Mycobacterium butyricum suspension (obtainable from the U.S. company, Difco), in order to induce a center of inflammation. Prior to injection, the paw volume of the rats was measured. Twenty four hours after injection, the paw volume was measured once again to determine the extent of the edema. Thereafter, varying amounts of the test compound, was administered orally to the rats. After another 24 hours, the paw volume was again determined.
The control animals were treated in the same way but without any test compound.
From the thus-obtained paw volumes, the amount of test compound which was required to achieve a 50% reduction the paw edema was conventionally determined. Difluocotolone 21-valerate was also utilized in these tests as the comparison compound.

The subject of a further experiment is thymus. The experiment in a line: thymolysis test (oral, adrenalectomized rats, thymus weight). The class given is in vivo, SPF rats. The conditions noted are these: Rattus norvegicus, 72 h, read-out: Thymolysis ED50. As to the method: The systemic activity of the compounds of this invention was determined as follows with the aid of the well-known thymolysis test:
SPF [specific-pathogen free] rats weighing 70- 110 g were adrenalectomized under ether narcosis. Six animals, respectively, formed each test group and received orally over a period of three days a defined amount of the test compound. On the fourth day, the animals were sacrificed and the weight of their thymus determined. The control animals were treated in the same way, but received a benzyl benzoate-castor -castor oil mixture without the test compound. From the thus-measured thymus weights, the amount of test compound at which a 50% thymolysis was observed was conventionally determined.

The subject of experiment [1] is skin (stratum corneum stripped, hyperemia). Description: vasoconstriction test (topical ointment on stripped skin, skin color value). The class given is in vivo, human volunteers. The conditions noted are these: concentration 0.00001%, untreated skin = 100, stripped skin = 0. The method, then: The local anti-inflammatory activity of the corticoids can be determined by means of the conventional vasoconstriction test.
On the backs of persons volunteering for the experiment, the stratum corneum was split up by the application and removal of an adhesive strip having a width of 2 cm. applied twenty times at the same spot, thus producing a pronounced hyperemia. Within the stripped area, 50 mg of an ointment preparation were applied to each one of a number of marked zones of a size of 4 cm^2. The ointment base without active ingredient served as the blank value. The color value of the untreated skin was set at 100 while that of the stripped skin was set at 0. The skin color value under vasoconstriction was correspondingly evaluated between 0 and 100.

The mark [2] stands for this setting: oral, 50% reduction of paw edema, systemic activity.
Where [3] appears, read: oral, three days, 50% thymolysis, adrenalectomized rats, systemic activity.

For `CCCCC(=O)OCC(=O)[C@H]1[C@H](C)C[C@H]2[C@@H]3C[C@H](F)C4=CC(=O)C=C[C@]4(C)[C@@]3(F)[C@@H](O)C[C@@]21C` [I, 6α, 9α-difluoro-11β-hydroxy-16α-methyl-21-valeryloxy-1,4-pregnadiene-3,20-dione, reference compound], the values for the ED50 in the experiment with paw edema (po) and in the experiment with thymus (po) were 0.3 mg/kg and 0.03 mg/kg, respectively. Besides, the “Vasoconstriction after 4 Hours” value in experiment [1] is 33%. Besides, the “Vasoconstriction after 8 Hours” value in experiment [1] was 36%.
Regarding `CC(C)(C)C(=O)OCC(=O)[C@@]1(OC(=O)c2ccccc2)CC[C@H]2C3=C([C@@H](O)C[C@@]21C)[C@@]1(C)C=CC(=O)C=C1CC3` [II, 17α-Benzoyloxy-11β-hydroxy-21-trimethylacetoxy-1,4,8(9)-pregnatriene-3,20-dione], the ED50 in the experiment on paw edema (setting [2]) was determined as 10 mg/kg. For the same molecule, in the experiment on thymus (setting [3]), the ED50 amounted to 5.5 mg/kg. In experiment [1], the “Vasoconstriction after 4 Hours” value was found to be 30% and the “Vasoconstriction after 8 Hours” value was found to be 33%.
In the same order, the values of `CC(=O)O[C@]1(C(=O)CCl)CC[C@H]2C3=C([C@@H](O)C[C@@]21C)[C@@]1(C)C=CC(=O)C=C1CC3` [III, 17α-Acetoxy-21-chloro-11β-hydroxy-1,4,8(9)-pregnatriene-3,20-dione] are 3.6 mg/kg, 3.6 mg/kg, 42% and 42%.
Turning to `CCC(=O)O[C@]1(C(=O)CCl)CC[C@H]2C3=C([C@@H](O)C[C@@]21C)[C@@]1(C)C=CC(=O)C=C1CC3` [IV, 21-Chloro-11β-hydroxy-17α-propionyloxy-1,4,8(9)-pregnatriene-3,20-dione], the ED50 with paw edema (setting [2]) was found to be 2 mg/kg. Further, in the experiment with thymus (setting [3]), the ED50 was determined as 2 mg/kg. In addition, in experiment [1], the “Vasoconstriction after 4 Hours” value is given as 47% and the “Vasoconstriction after 8 Hours” value turned out to be 45%.
Regarding `C[C@]12C=CC(=O)C=C1CCC1=C2[C@@H](O)C[C@@]2(C)[C@H]1CC[C@]2(OC(=O)c1ccccc1)C(=O)CCl` [V, 17α-Benzoyloxy-21-chloro-11β-hydroxy-1,4,8(9)-pregnatriene-3,20-dione], in the experiment on paw edema (setting [2]), the ED50 was 1 mg/kg. The ED50 in the experiment on thymus (setting [3]) was 1 mg/kg. Also, in experiment [1], the “Vasoconstriction after 4 Hours” value is 52% and the “Vasoconstriction after 8 Hours” value is recorded as 64%.

Values taken from patent US4176126A, “Novel corticoids” (Schering Aktiengesellschaft, priority 1976, dated 1979).
